Test results taken from patent publication US8821754B2, “Additive for preserving the fluidity of fluids containing gas hydrates” (Akzo Nobel N.V., priority 2006, dated 2014).
Marks after values point to notes of the source that are not given here.

Experiments:
[1] = multicell shut-in and restart test of anti-agglomerants; design: key: 0: The stirrer did not start at all until the temperature had been increased so much that the gas hydrate had melted; 1: The stirrer started but stopped again after a short period; 2: The stirrer started and kept on running continuously; details: restart after at least twelve hours at 4° C.; for Tests multicell shut-in, Fresh water (70 bar) 2.5% / Tests multicell shut-in, Seawater (70 bar) 2.5%: 2.5% anti-agglomerant; for Tests multicell shut-in, Fresh water (70 bar) 2.0%: 2.0% anti-agglomerant
Source text: (§1) The technique used for evaluating the anti-agglomerants is described in detail in “New Technique for Evaluating Antiagglomerate Gas-Hydrate Inhibitors in Oilfield Applications”, SPE 93075, 2005 SPE International Symposium on Oilfield Chemistry, Houston, Tex., Feb. 2-4.
(§2) The complete multicell system consists of a high-pressure vessel containing the multicell test unit, a cooling unit, a stirrer drive, a sensor interface unit, and a computer system. The high-pressure vessel is connected to two gas cylinders containing pressurized hydrocarbon gas (87.9% methane, 7.7% ethane, 3.1% propane, and 1.3% isobutane) and nitrogen. Thus, in an experimental run each test cell will be subjected to the same gas mixture, temperature, and pressure. Each cell has a magnetic bar stirrer and the rotation of the stirrer is monitored by the sensor and recorded. When gas hydrate crystals are formed in a cell, there will be a change in viscosity or flow behaviour and there will be a change in the lag of the stirrer bar. Each time the magnetic bar passes a certain point, an optical pulse is recorded. The lag is measured as the difference between the position of the lower drive magnets and the stirrer in the cell. When the viscosity gets too high, as is the case when larger aggregates of gas hydrates are formed, the magnetic stirrer will either stop completely, in which case the signal will be zero, or start “skipping”, which will create an unstable/random signal, and this will be shown in the recorded graph.
(§3) Each cell is also equipped with a temperature sensor.
The cells are loaded in the same way as above, but hydrocarbon gas is admitted until the constant stated pressure is reached.
In this experiment the test cells were stirred at 120 rpm for one hour at 20° C. and the stated pressure. The stirring was then stopped and the autoclave cooled to 4° C. in about 1.5 hours. The cells were then kept at 4° C. for a minimum of twelve hours before the driving magnets were restarted at 120 rpm. They were then kept running for about two hours at 4° C. before the cells were reheated to 20° C. in about 1.5 hours.
This is marked as 0 in the tables. • The stirrer started but stopped again after a short period. This is marked as 1 in the tables. • The stirrer started and kept on running continuously. This is marked as 2 in the tables.

[2] = multicell screening of anti-agglomerants (stirred cells cooled to 4° C., 100 bars); design: key to Tests multicell screening, Seawater 1.0% / Tests multicell screening, Seawater 1.5% / Tests multicell screening, Fresh water 1.5% / Tests multicell screening, Fresh water 2.5%: 0: the compound does not work as an anti-agglomerant; 1: the compound initially works as an anti-agglomerant, but not throughout the whole test; 2: the compound works as an anti-agglomerant throughout the whole test; details: for Tests multicell screening, Seawater 1.5% / Tests multicell screening, Fresh water 1.5%: 1.5% anti-agglomerant; for Tests multicell screening, Seawater 1.5% / Tests multicell screening, Seawater 1.0% / Tests multicell screening, Fresh water 1.5% / Tests multicell screening, Fresh water 2.5%: 100 bars, 4° C., Sleipner condensate; for effect as anti-agglomerant for gas hydrates in the screening test, in words: multicell screening test of Example 1; for Tests multicell screening, Seawater 1.0%: 1.0% anti-agglomerant; for Tests multicell screening, Fresh water 2.5%: 2.5% anti-agglomerant
Source text: as §1, §2, §3
The cells are loaded with 1 ml of water/inhibitor mixture and 2.5 ml of Sleipner condensate (=crude oil obtained from the Sleipner oilfield of Statoil). Nitrogen is first applied to expel most of the air, and then hydrocarbon gas is admitted until a constant pressure of 100 bars is reached.
During the whole test, the mixtures were continuously stirred at 120 rpm. The temperature was first lowered from about 20° C. to 4° C. in about 1.5 hours, then kept at 4° C. for about two hours, and finally reheated again to 20° C. in about 1.5 hours. When the stirrer works all the time, the compound is considered to work well as an anti-agglomerant, whereas if the stirrer bar stops, the compound is considered not to work as an anti-agglomerant during the prevailing conditions. The tests were performed both in seawater and in fresh water and at different concentrations of the anti-agglomerants.

[3] = seawater, 1.5% anti-agglomerant

Molecule	Tests multicell shut-in, Seawater (70 bar) 2.5% ([1]; seawater)	Tests multicell screening, Seawater 1.5% [2]	Tests multicell screening, Seawater 1.0% [2]	also measured
CCCCCCCC/C=C\CCCCCCCCN(CCCNC(C)=O)C(C)=O [Compound 10, N-oleyl-trimethylene diamine diamidated with acetic anhydride]	2	2	–	Tests multicell shut-in, Fresh water (70 bar) 2.5% [1]: 2; Tests multicell shut-in, Seawater (70 bar) 1.5% [1, 3]: 0
CCCCCCCCN(CCCNC(C)=O)C(C)=O [Compound 11, N-(n-octyl)-trimethylene diamine diamidated with acetic anhydride]	–	2	–	–
CCCCC(CC)CN(CCCNC(C)=O)C(C)=O (centres unmarked) [Compound 14, N-(2-ethylhexyl)-trimethylene diamine, diamidated with acetic anhydride]	0	–	–	Tests multicell shut-in, Fresh water (70 bar) 2.5% [1]: 2; Tests multicell shut-in, Seawater (70 bar) 1.5% [1, 3]: 0
(Coco alkyl)amine + 2EO + 2PO [Compound 3]	1	2	2	Tests multicell shut-in, Fresh water (70 bar) 2.0% [1]: 2; Tests multicell shut-in, Seawater (70 bar) 1.5% [1, 3]: 0; effect as anti-agglomerant for gas hydrates in the screening test, in words [2]: works excellently as an anti-agglomerant
(Coco alkyl)amine + 2EO [B, reference compound]	–	0	0	effect as anti-agglomerant for gas hydrates in the screening test, in words [2]: not effective
(Coco alkyl)amine + 4 EO [reference compound]	–	0	0	effect as anti-agglomerant for gas hydrates in the screening test, in words [2]: not effective
Erucyl amine + 2EO + 2PO [Compound 2]	–	2	–	Tests multicell screening, Fresh water 1.5% [2]: 2
Monoamide between oleic acid and aminoethyl ethanolamine + 1EO, diesterified with acetic anhydride [Compound 7]	–	–	2	–
Monoamide between oleic acid and aminoethyl ethanolamine, amidated with acetic anhydride [Compound 8]	–	2	2	Tests multicell screening, Fresh water 1.5% [2]: 2
N,N-bis(3-aminopropyl)(tallow alkyl)amine, diamidated with acetic anhydride [Compound 9]	–	2	0	–
N-(2-ethylhexyl)-trimethylene diamine + 3PO [Compound 15]	2	–	–	Tests multicell shut-in, Fresh water (70 bar) 2.5% [1]: 1
N-(coco alkyl)-trimethylene diamine diamidated with acetic anhydride [Compound 12]	–	2	–	–
N-(n-octyl)-trimethylene diamine + 3PO [Compound 4]	–	2	–	–
N-(tallow alkyl)-N-methyl aminopropylamine monoamidated with acetic anhydride [Compound 13]	–	2	–	–
N-oleyl-trimethylene diamine + 3EO, triesterified with acetic anhydride [Compound 6]	1	2	–	Tests multicell shut-in, Fresh water (70 bar) 2.5% [1]: 2; Tests multicell shut-in, Seawater (70 bar) 1.5% [1, 3]: 0; Tests multicell screening, Fresh water 2.5% [2]: 2
Oleyl amine + 2EO + 2PO [Compound 1]	1	2	–	Tests multicell shut-in, Fresh water (70 bar) 2.0% [1]: 1; Tests multicell shut-in, Fresh water (70 bar) 2.5% [1]: 1; Tests multicell shut-in, Seawater 1.5%, measured at 100 bar ([1]; seawater, 100 bar, 1.5% anti-agglomerant): 2**
Oleyl amine + 2EO + 2PO, quaternized with CH3Cl [reference compound]	–	2	–	Tests multicell screening, Fresh water 1.5% [2]: 0
Oleyl amine + 2EO [D, reference compound]	–	–	0	–
Oleyl amine + 2EO, diester with acetic acid [Compound 5]	–	2	0	Tests multicell screening, Fresh water 1.5% [2]: 0; Tests multicell screening, Fresh water 2.5% [2]: 0
